Counter-ions that a name gives are not always drawn.
Tests used:
HePTP [1] = molecular target: T1, HePTP (Homo sapiens, UniProt P35236); assay: HePTP HTS primary screen (colorimetric pNPP / Biomol Green); assay type: biochemical; conditions: 20 μM compound; for inhibition at 20 µM: read-out: % Inhib. at 20 μM
T1 sequence (P35236 1-360): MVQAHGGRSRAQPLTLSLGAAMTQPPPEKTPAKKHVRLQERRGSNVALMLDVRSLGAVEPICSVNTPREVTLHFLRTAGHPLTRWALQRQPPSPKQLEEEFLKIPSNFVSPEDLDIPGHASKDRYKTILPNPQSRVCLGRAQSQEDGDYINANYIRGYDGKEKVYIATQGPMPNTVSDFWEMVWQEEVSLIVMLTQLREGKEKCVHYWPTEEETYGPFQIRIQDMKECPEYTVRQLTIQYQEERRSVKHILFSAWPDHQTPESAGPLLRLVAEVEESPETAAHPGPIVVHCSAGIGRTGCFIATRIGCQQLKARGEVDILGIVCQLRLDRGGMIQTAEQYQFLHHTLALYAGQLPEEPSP
Text: (§1) The following assay can be conducted manually or can be carried out by a robotic station.
For this assay, HePTP catalyzes the following reaction:
wherein p-nitrophenyl phosphate serves as a substrate and is cleaved to form p-nitrophenol and phosphate. The liberated phosphate complexes with the Biomol Green™ reagent to provide a quantitative colorimetric value for the amount of substrate cleaved.
(§2) Compounds are then serially diluted in 100% DMSO, and then diluted with water to 10% final DMSO concentration.
(§3) The primary screening actives can then proceed to the dose-response confirmation stage.

HePTP [2] = molecular target: T1, HePTP; assay: HePTP dose-response confirmation screening; assay type: biochemical; conditions: for IC50: 10 concentrations, 2-fold serial dilution, pNPP substrate; for n / nH (Hill coefficient): Hill coefficient of the dose-response curve
Text: as §1, §2, §3
* n represents the Hill coefficient. This coefficient is derived from the Hill equation which has the formula: […]
wherein θ is the fraction of ligand binding sites filled, L is the inhibitor concentration, Ka is the inhibitor concentration producing half occupation of the ligand binding sites, and n is the Hill coefficient.

Row | SMILES | inhibition at 20 µM (HePTP [1]) [%] | IC50 (HePTP [2]) [nM] | n / nH (Hill coefficient) (HePTP [2]) | % Inhib. at 20 μM (HePTP [1]) [%]
1 | CCC1=NC2Sc3ccccc3C(=O)C2C(=O)N1Cc1ccco1 (centres unmarked) | 79.4 | 15100 | 1.27 | –
2 | COc1ccc(Cn2c(C)nc3c(c2=O)c2nc4ccccc4nc2n3Cc2ccco2)cc1 | 104 | 6860 | 2.17 | –
3 | COc1ccc2c(c1)=CC(=C1N=C(c3ccc(F)cc3)ON1)C(=O)N=2 (stereo in doubt) [(3Z)-3-[5-(4-fluorophenyl)-1,2,4-oxadiazol-3-ylidene]-6-methoxy-quinolin-2-one] | 99.2 | 2180 | 2.73 | –
4 | COc1ccc2c(c1)=CC(=C1N=C(c3ccccc3)ON1)C(=O)N=2 (stereo in doubt) [(3Z)-6-methoxy-3-(5-phenyl-1,2,4-oxadiazol-3-ylidene)quinolin-2-one] | 77.1 | 4230 | 4.29 | –
5 | N#Cc1c(N2CCCC2)nc(N)c2c(N)nc(N3CCCC3)cc12 [1,8-Diamino-3,6-dipyrrolidin-1-yl-2,7-naphthyridine-4-carbonitrile] | 61.3 | 6960 | 0.99 | –
6 | O=C(O)C(O)c1ccco1 (centres unmarked) [2-(2-Furyl)-2-hydroxy-acetic acid] | 100 | 2300 | 1.79 | –
7 | Cc1cccc(Nc2nn3c(=O)c4ccccc4nc3s2)c1 [2-(3-Methylphenylamino)-5H-[1,3,4]thiadiazolo[2,3-b]quinazolin-5-one] | 53.9 | 2740 | 1.32 | –
8 | O=C(COC(=O)c1cccc(S(=O)(=O)N2CCN(c3ccccc3)CC2)c1)NCc1ccco1 [2-Furylmethylcarbamoylmethyl 3-(4-phenylpiperazin-1-yl)sulfonylbenzoate] | 50.7 | 4970 | 2.07 | –
9 | O=C(CCS(=O)(=O)c1ccc(Br)cc1)NCc1cccs1 [3-(4-Bromophenyl)sulfonyl-N-(thiophen-2-ylmethyl)propanamide] | 103 | 68300 | 1.24 | –
10 | c1ccc(CSc2nnc(-c3ccco3)c(-c3ccco3)n2)cc1 [3-Benzylsulfanyl-5,6-bis(2-furyl)-1,2,4-triazine] | 53.9 | 2740 | 1.32 | –
11 | NC(=O)c1c(NC(=O)CSc2nnc(-c3ccco3)n2-c2ccccc2)sc2c1CCC2 [3-[[2-[[5-(2-furyl)-4-phenyl-1,2,4-triazol-3 - yl]sulfanyl]acetyl]amino]-4-thiabicyclo[3.3.0]octa-2,9-diene-2-carboxamide] | – | 10600 | 4.06 | 97.5
12 | COc1cccc(C(=O)NC2CC3CCCC(C2)N3CC(=O)Nc2ccccc2)c1 (centres unmarked) [3-methoxy-N-[9-(phenylcarbamoylmethyl)-9-azabicyclo[3.3.1]non-7-yl]benzamide hydrochloride] | 103 | 4670 | 4.22 | –
13 | O=C(O)c1cc(O)c2c(c1)C(=O)c1cccc(O)c1C2=O [4,5-Dihydroxy-9,10-dioxo-anthracene-2-carboxylic acid] | 64.2 | 19600 | 0.76 | –
14 | Cc1cc(C)n(-c2nc(Nc3ccccc3)nc(-n3nc(C)cc3C)n2)n1 [4,6-bis(3,5-Dimethylpyrazol-1-yl)-N-phenyl-1,3,5-triazin-2-amine] | 50.5 | 21600 | 2.83 | –
15 | CN(C)c1ccc(-c2nn3c(-c4ccc(Cl)cc4Cl)nnc3s2)cc1 [4-[2-(2,4-Dichlorophenyl)-6-thia-1,3,4,8-tetrazabicyclo[3.3.0]octa-2,4,7-trien-7-yl]-N,N-dimethyl-aniline] | 64.3 | 78400 | 2.71 | –
16 | O=C(O)CCC(=O)N1CCc2cc(S(=O)(=O)N3CCN(c4ccc(F)cc4)CC3)ccc21 [4-[5-[4-(4-Fluorophenyl)piperazin-1-yl]sulfonyl-2,3-dihydroindol-1-yl]-4-oxo-butanoic acid] | 58.8 | 3770 | 7.72 | –
17 | O=C1CCCC2=C1C(c1ccco1)Nc1ccc3ccccc3c12 (centres unmarked) [5-(Furan-2-yl)-2,3,5,6-tetrahydrobenzo[a]phenantridin-4(1H)-one] | 59.4 | 5950 | 2.08 | –
18 | COc1ccc(Br)cc1C(=O)Nc1cccc(-c2nnc(-c3ccco3)o2)c1 [5-Bromo-N-[3-[5-(2-furyl)-1,3,4-oxadiazol-2-yl]phenyl]-2-methoxy-benzamide] | 102 | 4900 | 1.47 | –

Other lines, results leading:

Row | inhibition at 20 µM (HePTP [1]) [%] | IC50 (HePTP [2]) [nM] | n / nH (Hill coefficient) (HePTP [2]) | % Inhib. at 20 μM (HePTP [1]) [%] | SMILES
19 | 54.1 | 990 | 1.02 | – | O=C(c1ccc(=O)oc1)N1CCOCC1
20 | 102 | 1790 | 7.56 | – | O=C(O)c1ccccc1-c1ccc(/C=c2\sc3nc4cc(Br)cnc4n3c2=O)o1
21 | 62.5 | 410 | 2.28 | – | CSc1nc(N(CCO)CCO)c2sc3nc(-c4ccco4)c4c(c3c2n1)CCC4
22 | 86 | 1690 | 3.77 | – | CCn1c(SC(C)C(=O)O)nc2c(c1=O)C1=C(CCC1)C2 (centres unmarked)
23 | 102 | 1290 | 4.48 | – | CCn1c(SCC(=O)O)nc2c(c1=O)C1=C(CCC1)C2
24 | 84.9 | 1310 | 1.67 | – | O=C1CC(=O)N(Cc2ccco2)C(=O)N1 [1-(2-Furylmethyl)-1,3-diazinane-2,4,6-trione]
25 | 74.1 | 1140 | 2.26 | – | c1coc(-c2nc(-c3ccco3)c(-c3ccco3)nc2-c2ccco2)c1 [2,3,5,6-tetrakis(2-furyl)pyrazine]
26 | 93.1 | 1170 | 2.23 | – | Cc1c(N2C(=O)c3ccc4c5c(ccc(c35)C2=O)CC4)c(=O)n(-c2ccccc2)n1C [2-(1,5-Dimethyl-3-oxo-2-phenyl-2,3-dihydro-1H-pyrazol-4-yl)-6,7-dihydro-1H-indeno[6,7,1-def]isoquinoline-1,3(2H)-dione]
27 | 102 | 420 | – | – | Cc1ccc(C)n1C(Cc1ccccc1)C(=O)O (centres unmarked) [2-(2,5-Dimethylpyrrol-1-yl)-3-phenyl-propanoic acid]
28 | 57.2 | 1170 | 3.7 | – | COc1ccc(N2Cc3cccc(C(=O)O)c3C2=O)cc1 [2-(4-Methoxyphenyl)-3-oxo-1H-isoindole-4-carboxylic acid]
29 | 102 | 1300 | 2.59 | – | Cc1ccc(C)n1-c1cccc(C(=O)O)c1 [3-(2,5-Dimethylpyrrol-1-yl)benzoic acid]
30 | 58.1 | 1400 | 1.45 | – | O=C(O)c1cccc(-n2cccc2/C=N/O)c1 [3-[2-(Hydroxyiminomethyl)pyrrol-1-yl]benzoic acid]
31 | 95.3 | 420 | 2.5 | – | COc1ccc(Br)cc1/C=c1\sc2nc(-c3ccco3)nn2c1=O [3-[(5-Bromo-2-methoxy-phenyl)methylidene]-7-(2-furyl)-4-thia-1,6,8-triazabicyclo[3.3.0]octa-5,7-dien-2-one]
32 | 102 | 400 | 2.66 | – | CC1(C)CCCN(C(=O)c2coc(=O)c(Br)c2)C1 [3-bromo-5-(3,3-dimethylpiperidine-1-carbonyl)pyran-2-one]
33 | 103 | 700 | 2.09 | – | Cc1cc(C(=O)O)ccc1-n1c(C)ccc1C [4-(2,5-Dimethylpyrrol-1-yl)-3-methyl-benzoic acid]
34 | 67.2 | 1150 | 2.13 | – | O=C1Nc2ccccc2SC(c2ccccc2)C1O (centres unmarked) [4-Hydroxy-3-phenyl-2-thia-6-azabicyclo[5.4.0]undeca-7,9,11-trien-5-one]
35 | 92.4 | 2120 | 1.3 | – | Cc1ccc(-c2nn3c(C)nnc3s2)cc1NC(=O)c1ccc(-c2ccc(Cl)cc2Cl)o1 [5-(2,4-Dichlorophenyl)-N-[2-methyl-5-(2-methyl-6-thia-1,3,4,8-tetrazabicyclo[3.3.0]octa-2,4,7-trien-7-yl)phenyl]furan-2-carboxamide]
36 | 102 | 1500 | 1.94 | – | Cc1nnc2sc(-c3ccc(NC(=O)c4ccc(-c5ccc(Cl)cc5Cl)o4)cc3)nn12 [5-(2,4-Dichlorophenyl)-N-[4-(2-methyl-6-thia-1,3,4,8-tetrazabicyclo[3.3.0]octa-2,4,7-trien-7-yl)phenyl]furan-2-carboxamide]

Reference: patent US20120095032A1, “METHODS FOR TREATING LEUKEMIA AND MYELODYSPLASTIC SYNDROME, AND METHODS FOR IDENTIFYING AGENTS FOR TREATING SAME” (Sanford-Burnham Medical Research Institute, priority 2007, published 2012)
